# PubChem BioAssay (NCI)
#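 Briefly, cells in 96-well plates were exposed to five compound concentrations for 48 h, and endpoints were estimated by linear interpolation. TGI denotes the concentration required for complete inhibition of growth.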
# What was measured:
# Test in all cases: NCI tumour cell line growth inhibition, 48 h
# SK-OV-3 ovarian = test system: SK-OV-3 ovarian
# HT29 colon = test system: HT29 colon
# NCI-H226 lung = test system: NCI-H226 lung
# SF-539 CNS = test system: SF-539 CNS
# BT-549 breast = test system: BT-549 breast
# HL-60(TB) leukemia = test system: HL-60(TB) leukemia
# MALME-3M melanoma = test system: MALME-3M melanoma
# RPMI-8226 leukemia = test system: RPMI-8226 leukemia
# A498 renal = test system: A498 renal
# A549 NSCLC = test system: A549 NSCLC
# M14 melanoma = test system: M14 melanoma
# SK-MEL-2 melanoma = test system: SK-MEL-2 melanoma
# EKVX NSCLC = test system: EKVX NSCLC
# ACHN renal = test system: ACHN renal
# HCT-116 colon = test system: HCT-116 colon
# NCI-H522 lung = test system: NCI-H522 lung
# UO-31 renal = test system: UO-31 renal
# CCRF-CEM leukemia = test system: CCRF-CEM leukemia
# MDA-MB-231 breast = test system: MDA-MB-231 breast
# MDA-MB-435 = test system: MDA-MB-435
# NCI-H23 lung = test system: NCI-H23 lung
# UACC-62 melanoma = test system: UACC-62 melanoma
# NCI/ADR-RES ovarian = test system: NCI/ADR-RES ovarian
# MOLT-4 leukemia = test system: MOLT-4 leukemia
# OVCAR-3 ovarian = test system: OVCAR-3 ovarian
# OVCAR-5 ovarian = test system: OVCAR-5 ovarian
# TK-10 renal = test system: TK-10 renal
# SK-MEL-5 melanoma = test system: SK-MEL-5 melanoma
# K-562 leukemia = test system: K-562 leukemia
# HOP-92 NSCLC = test system: HOP-92 NSCLC
# RXF 393 renal = test system: RXF 393 renal
# NCI-H460 lung = test system: NCI-H460 lung
# 786-0 renal = test system: 786-0 renal
# MCF7 breast = test system: MCF7 breast
# HS 578T breast = test system: HS 578T breast
# SF-268 CNS = test system: SF-268 CNS
# SNB-75 CNS = test system: SNB-75 CNS
# MDA-N = test system: MDA-N
# HCT-15 colon = test system: HCT-15 colon
# IGROV1 ovarian = test system: IGROV1 ovarian
# T-47D breast = test system: T-47D breast
# LOX IMVI melanoma = test system: LOX IMVI melanoma
# SW-620 colon = test system: SW-620 colon
# SNB-19 CNS = test system: SNB-19 CNS
# OVCAR-4 ovarian = test system: OVCAR-4 ovarian
# PC-3 prostate = test system: PC-3 prostate
# HOP-62 NSCLC = test system: HOP-62 NSCLC
# COLO 205 colon = test system: COLO 205 colon
# OVCAR-8 ovarian = test system: OVCAR-8 ovarian
# KM12 colon = test system: KM12 colon
# SF-295 CNS = test system: SF-295 CNS
# SR leukemia = test system: SR leukemia
# U251 CNS = test system: U251 CNS
# UACC-257 melanoma = test system: UACC-257 melanoma
# CAKI-1 renal = test system: CAKI-1 renal
# SK-MEL-28 melanoma = test system: SK-MEL-28 melanoma
# DU-145 prostate = test system: DU-145 prostate
# SN12C renal = test system: SN12C renal
smiles,measurement,setting,value
COc1ccc(-c2csc3c2[N+]2(C)C=CC=C2C3N2CCCC2)cc1 (stereo unspecified),TGI,SK-OV-3 ovarian,> 100 µM
same,TGI,HT29 colon,43 µM
same,TGI,NCI-H226 lung,26.5 µM
same,TGI,SF-539 CNS,57.7 µM
same,TGI,BT-549 breast,58.3 µM
same,TGI,HL-60(TB) leukemia,> 100 µM
same,TGI,MALME-3M melanoma,50.5 µM
same,TGI,RPMI-8226 leukemia,> 100 µM
same,TGI,A498 renal,> 100 µM
same,TGI,A549 NSCLC,> 100 µM
same,TGI,M14 melanoma,> 100 µM
same,TGI,SK-MEL-2 melanoma,31.1 µM
same,TGI,EKVX NSCLC,> 100 µM
same,TGI,ACHN renal,> 100 µM
same,TGI,HCT-116 colon,> 100 µM
same,TGI,NCI-H522 lung,19.1 µM
same,TGI,UO-31 renal,> 100 µM
same,TGI,CCRF-CEM leukemia,> 100 µM
same,TGI,MDA-MB-231 breast,> 100 µM
same,TGI,MDA-MB-435,59.5 µM
same,TGI,NCI-H23 lung,44.7 µM
same,TGI,UACC-62 melanoma,38.2 µM
same,TGI,NCI/ADR-RES ovarian,63.7 µM
same,TGI,MOLT-4 leukemia,> 100 µM
same,TGI,OVCAR-3 ovarian,52.6 µM
same,TGI,OVCAR-5 ovarian,> 100 µM
same,TGI,TK-10 renal,> 100 µM
same,TGI,SK-MEL-5 melanoma,28.8 µM
same,TGI,K-562 leukemia,> 100 µM
same,TGI,HOP-92 NSCLC,75.9 µM
same,TGI,RXF 393 renal,> 100 µM
same,TGI,NCI-H460 lung,46.8 µM
same,TGI,786-0 renal,> 100 µM
same,TGI,MCF7 breast,> 100 µM
same,TGI,HS 578T breast,98.6 µM
same,TGI,SF-268 CNS,> 100 µM
same,TGI,SNB-75 CNS,36.8 µM
same,TGI,MDA-N,> 100 µM
same,TGI,HCT-15 colon,> 100 µM
same,TGI,IGROV1 ovarian,27.2 µM
same,TGI,T-47D breast,76.1 µM
same,TGI,LOX IMVI melanoma,> 100 µM
same,TGI,SW-620 colon,> 100 µM
same,TGI,SNB-19 CNS,> 100 µM
same,TGI,OVCAR-4 ovarian,> 100 µM
same,TGI,PC-3 prostate,> 100 µM
same,TGI,HOP-62 NSCLC,> 100 µM
same,TGI,COLO 205 colon,42.6 µM
same,TGI,OVCAR-8 ovarian,> 100 µM
same,TGI,KM12 colon,34.9 µM
same,TGI,SF-295 CNS,54 µM
same,TGI,SR leukemia,35.4 µM
same,TGI,U251 CNS,23.3 µM
same,TGI,UACC-257 melanoma,93.5 µM
same,TGI,CAKI-1 renal,> 100 µM
C=CCN1C(=O)C[C@H](Cc2ccccc2)NC(=O)C[C@H](Cc2ccccc2)N(CC=C)C(=O)C[C@H](Cc2ccccc2)NC(=O)C[C@@H]1Cc1ccccc1,TGI,SK-OV-3 ovarian,> 100 µM
same,TGI,HT29 colon,> 100 µM
same,TGI,NCI-H226 lung,> 100 µM
same,TGI,SF-539 CNS,> 100 µM
same,TGI,BT-549 breast,> 100 µM
same,TGI,HL-60(TB) leukemia,9.37 µM
same,TGI,MALME-3M melanoma,50.6 µM
same,TGI,RPMI-8226 leukemia,9.66 µM
same,TGI,A498 renal,> 100 µM
same,TGI,A549 NSCLC,> 100 µM
same,TGI,M14 melanoma,> 100 µM
same,TGI,SK-MEL-2 melanoma,> 100 µM
same,TGI,EKVX NSCLC,9.25 µM
same,TGI,HCT-116 colon,> 100 µM
same,TGI,UO-31 renal,> 100 µM
same,TGI,CCRF-CEM leukemia,> 100 µM
same,TGI,MDA-MB-231 breast,> 100 µM
same,TGI,MDA-MB-435,> 100 µM
same,TGI,NCI-H23 lung,> 100 µM
same,TGI,UACC-62 melanoma,> 100 µM
same,TGI,NCI/ADR-RES ovarian,> 100 µM
same,TGI,MOLT-4 leukemia,6.91 µM
same,TGI,OVCAR-3 ovarian,> 100 µM
same,TGI,OVCAR-5 ovarian,> 100 µM
same,TGI,TK-10 renal,> 100 µM
same,TGI,SK-MEL-5 melanoma,> 100 µM
same,TGI,K-562 leukemia,> 100 µM
same,TGI,HOP-92 NSCLC,80.4 µM
same,TGI,RXF 393 renal,> 100 µM
same,TGI,SK-MEL-28 melanoma,> 100 µM
same,TGI,NCI-H460 lung,> 100 µM
same,TGI,786-0 renal,> 100 µM
same,TGI,MCF7 breast,> 100 µM
same,TGI,HS 578T breast,> 100 µM
same,TGI,SF-268 CNS,> 100 µM
same,TGI,SNB-75 CNS,50.1 µM
same,TGI,MDA-N,> 100 µM
same,TGI,HCT-15 colon,> 100 µM
same,TGI,IGROV1 ovarian,> 100 µM
same,TGI,T-47D breast,> 100 µM
same,TGI,LOX IMVI melanoma,> 100 µM
same,TGI,SW-620 colon,> 100 µM
same,TGI,SNB-19 CNS,> 100 µM
same,TGI,DU-145 prostate,> 100 µM
same,TGI,OVCAR-4 ovarian,72 µM
same,TGI,PC-3 prostate,> 100 µM
same,TGI,HOP-62 NSCLC,> 100 µM
same,TGI,COLO 205 colon,5.87 µM
same,TGI,OVCAR-8 ovarian,> 100 µM
same,TGI,KM12 colon,> 100 µM
same,TGI,SN12C renal,> 100 µM
same,TGI,SF-295 CNS,> 100 µM
same,TGI,SR leukemia,> 100 µM
same,TGI,U251 CNS,> 100 µM
same,TGI,UACC-257 melanoma,> 100 µM
same,TGI,CAKI-1 renal,> 100 µM
